# Patent US20230220021A1, “CYCLIC PEPTIDE INHIBITORS OF PSD-95 AND USES THEREOF” (University of Copenhagen, priority 2020, published 2023)
# Where a SMILES comes first, the peptide text is derived from it. [ ]: non-standard residue; d: D form.
# What was measured:
# PSD-95-PDZ2 [1] = target: T1, PSD-95-PDZ2 (Homo sapiens, UniProt P78352); assay: Fluorescence polarization (FP) competition assay against cyclic nNOS TAMRA probe; format: binding; details: for Ki / effect on interaction with PSD-95-PDZ2 (in words) / fold lowered (decreased) binding affinity of the cyclic peptide: FP competition; for Ki: cyclic nNOS TAMRA probe, mean of triplicates, N.B. = not binding, read-out: Ki; for Relative Ki (Ki mut/Ki WT): FP inhibition constant normalized to WT value; for fold lowered (decreased) binding affinity of the cyclic peptide: relative to unsubstituted cyclic peptide
# T1 construct: 7xHis (N); made in house; host or cells: Escherichia coli B21 pLys (for the mutants, 'as previously described')
# Protocol: Fluorescence polarization (FP). FP assays were performed in a 384-well plate format. Fluorescence polarization was measured using a Safire 2 plate reader. The instrument Z-factor was optimized for each assay. The G-factor was calibrated to an initial milli polarization value of 20. The wavelength for the cyclic nNOS β-hairpin TAMRA probe was: ex: 530 nm and em: 580 nm. Every measurement was performed in NaPI 50 mM, 50 mM NaCl and 1% BSA at pH 7.2, 25° C. […] The curves were done in triplicates. Then, the polarization was fitted into a one-site binding model using Prism software 8.0 (GraphPad), from which the Kd can be measured. […] The mili polarization (mP) values were plotted as a function of peptide concentration and fitted to a sigmoidal dose-response curve using Prism software 8.0 (GraphPad). The Ki values were calculated according to Nikolovska-Coleska Z. et al.^40-41
# PSD-95-PDZ2 [2] = target: T2, PSD-95-PDZ2 (Homo sapiens, UniProt P78352, V178C); assay: SPOT peptide array screening with TAMRA labelled PSD-95-PDZ2; format: binding; details: SPOT array, TAMRA labelled PSD-95-PDZ2-V178C, normalized to WT
# T2 construct: screened with the TAMRA labelled PSD-95-PDZ2-V178C domain; 7xHis (N); made in house
# Protocol: SPOT peptide array synthesis. To generate the cyclic nNOSβ-hairpin arrays, we used the Intavis MultiPep spotter (Intavis Bioanalytical instruments). The membranes employed in this assay were SynthoPlan APEG CE (standard amino-modified acid stable sellulose membrane with a PEG-spacer), 10×15 cm with a loading of 400 nmol cm^−2. Solutions of 0.3 M Fmoc-AA-OH and 0.3 M Oxyma Pure were prepared in N-methyl-2-pyrrolidone (NMP). The activator solution consisted of 0.3 M DIC and 0.3 M of 2,4,6-trimethylpyridine (Collidine) in NMP. The capping solution consisted of a solution of 1 M acetic anhydride and 0.05 M of 4-dimethylaminopyridine (DMAP) in NMP. The deprotection solution consisted of 20% piperidine in NMP. AA couplings were performed 1 h,4 times. Deprotection of the Fmoc groups was performed 15min,2 times. Membrane washing between couplings or deprotections was performed with NMP and ethanol. Elongation of peptides in cellulose membrane was started by coupling first the Fmoc-PEG(9)-OH (Iris Biotech) and the subsequent mixture of Fmoc-Gly-OH (25%) and Boc-Gly-OH (75%) to lower the total loading of the membrane. Afterwards, the resin was capped with the capping solution and extensively washed and soaked in bromophenol blue (BPB) as a quality control to reveal the SPOTS with a functional amino group. Then, we coupled the quasi-orthogonal group Fmoc-Glu-PP, and carried out the rest of the synthesis until peptide completion. The cellulose bound linear peptides were finally treated with a solution of 95% DCM, 3% TIPS and 2% TFA 3 times, 20 min. to remove the quasi-orthogonal group. Afterwards, the membrane was washed 5 times with DCM and neutralized with 5% DIPEA in DCM. The membrane was then washed 5 more times with DCM, 5 times with NMP and cyclized with 0.3M PyAOP and 0.3M of DIPEA in DMF for 3 h or overnight. Finally, the membrane was dried with DCM and the side-chain protecting groups were cleaved with the standard deprotection cocktail (95% TFA, 2.5% H2O and 2.5% TIPS) or with reagent K [TFA 82.5%, phenol 5%, H2O 5%, thioanisole 5% and 1,2-ethanedithiol (EDT) 2.5%] for 3 h.
# SPOT membrane screening. Membranes were incubated with PBS pH 7.2+0.5% bovine serum albumin (BSA) for 1 h. After the incubation period, the membrane was dried and scanned with an Amershan Typhoon scanner, at 400V, Cy3 wavelength (532 nm). A TIF file of the screening and a file with the blank values were generated using the Image Quant software. Afterwards, a solution of 50 nM of TAMRA labelled PSD-95-PDZ2 domain was prepared in PBS pH 7.2+0.5% BSA and was added to the membrane. The membrane was left incubating in a Polymax 1040 rocking table for 1 h protected from the light. Passed the incubation time, the excess of labelled protein was removed by washing the membrane 3 times with PBS+0.5% BSA. Finally, the membrane fluorescence values were measured with the Amershan Typhoon scanner at 400V, Cy3 wavelength (532 nm). Using the Image Quant software, the TIF image of the screening and a file with the fluorescence values of the peptides with the TAMRA labelled PSD-95-PDZ2 were generated. The blank was then subtracted from the fluorescence values of the peptides screened against the TAMRA labelled PSD-95-PDZ2.
# A deep mutational scan was performed on the WT scaffold, exchanging each AA to the remaining 19 L-AAs. Each array contained three copies of the individual peptides as technical replicates. Additionally, three controls were included in the design: the cyclic nNOS β-hairpin WT control (positive control), a linear nNOS peptide (cyclization control) and a cyclic nNOS β-hairpin with a F111V substitution (negative control previously tested in FP competition assays). For array screening, a mutation in PSD-95-PDZ2 residue V178 (PSD-95-PDZ2-V178C) was introduced, which was subsequently labelled with TAMRA maleimide. […]
Compound,Ki (PSD-95-PDZ2 [1]) [µM],Relative Ki (Ki mut/Ki WT) (PSD-95-PDZ2 [1]),Normalized SPOT fluorescence (Mut/WT) (PSD-95-PDZ2 [2]),effect on interaction with PSD-95-PDZ2 (in words) (PSD-95-PDZ2 [1]),other results
CC[C@H](C)[C@@H]1NC(=O)[C@H]([C@@H](C)O)NC(=O)[C@H](CCCCN)NC(=O)[C@@H]2CCCN2C(=O)[C@H]([C@@H](C)O)NC(=O)CNC(=O)[C@H](CC(=O)O)NC(=O)CNC(=O)[C@H](Cc2c[nH]cn2)NC(=O)[C@H](Cc2ccccc2)NC(=O)[C@H]([C@@H](C)O)NC(=O)[C@H]([C@@H](C)O)NC(=O)[C@H](CCC(=O)O)NC(=O)[C@H](CC(C)C)NC(=O)[C@H](Cc2c[nH]cn2)NC(=O)[C@H]([C@@H](C)O)NC(=O)[C@H](CCC(N)=O)NC(=O)CNC(=O)[C@H]2CCCN2C(=O)[C@H](CCC(N)=O)NC(=O)[C@H]([C@@H](C)O)NC(=O)[C@H](C(C)C)NC(=O)[C@H](CCCNC(=N)N)NC1=O [compound 20] (cyclo(THLETTFHGDGTPKTIRVTQ[dP]GQ)),1.98,1.32,1.49,–,–
CC[C@H](C)[C@@H]1NC(=O)[C@H]([C@@H](C)O)NC(=O)[C@H](CCCCN)NC(=O)[C@@H]2CCCN2C(=O)[C@H]([C@@H](C)O)NC(=O)CNC(=O)[C@H](CC(=O)O)NC(=O)CNC(=O)[C@H]([C@@H](C)O)NC(=O)[C@H](C(C)C)NC(=O)[C@H]([C@@H](C)O)NC(=O)[C@H]([C@@H](C)O)NC(=O)[C@H](CCC(=O)O)NC(=O)[C@H](CC(C)C)NC(=O)[C@H](Cc2c[nH]cn2)NC(=O)[C@H]([C@@H](C)O)NC(=O)[C@H](CCC(N)=O)NC(=O)CNC(=O)[C@H]2CCCN2C(=O)[C@H](CCC(N)=O)NC(=O)[C@H]([C@@H](C)O)NC(=O)[C@H](C(C)C)NC(=O)[C@H](CCCNC(=N)N)NC1=O [compound 21] (cyclo(THLETTVTGDGTPKTIRVTQ[dP]GQ)),–,51.60,0.05,–,–
CC[C@H](C)[C@@H]1NC(=O)[C@H]([C@@H](C)O)NC(=O)[C@H](CCCCN)NC(=O)[C@@H]2CCCN2C(=O)[C@H]([C@@H](C)O)NC(=O)CNC(=O)[C@H](CC(=O)O)NC(=O)CNC(=O)[C@H]([C@@H](C)O)NC(=O)[C@H](Cc2ccccc2)NC(=O)[C@H]([C@@H](C)O)NC(=O)[C@H]([C@@H](C)O)NC(=O)[C@H](CCC(=O)O)NC(=O)[C@H](CC(C)C)NC(=O)[C@H](Cc2c[nH]cn2)NC(=O)[C@H](Cc2ccc(O)cc2)NC(=O)[C@H](CCC(N)=O)NC(=O)CNC(=O)[C@H]2CCCN2C(=O)[C@H](CCC(N)=O)NC(=O)[C@H]([C@@H](C)O)NC(=O)[C@H](C(C)C)NC(=O)[C@H](CCCNC(=N)N)NC1=O [compound 24] (cyclo(YHLETTFTGDGTPKTIRVTQ[dP]GQ)),1.47,0.98,1.32,–,–
Cyclo-(THLEAlloTTFTGDGTPKTIRVTQpG(Qα)) (THLEXTFTGDGTPKTIRVTQPGQ; cyclic; allo-threonine at 109; D-proline; cyclized peptide; (5)..(5) X is AlloT; (21)..(21) is D-AA) [SEQ ID NO: 80],–,–,–,abolish the interaction,–
Cyclo-(THLESTFTGDGTPKTIRVTQpG(Qα)) (cyclo(THLESTFTGDGTPKTIRVTQ[dP]GQ); SMILES CC[C@H](C)[C@@H]1NC(=O)[C@H]([C@@H](C)O)NC(=O)[C@H](CCCCN)NC(=O)[C@@H]2CCCN2C(=O)[C@H]([C@@H](C)O)NC(=O)CNC(=O)[C@H](CC(=O)O)NC(=O)CNC(=O)[C@H]([C@@H](C)O)NC(=O)[C@H](Cc2ccccc2)NC(=O)[C@H]([C@@H](C)O)NC(=O)[C@H](CO)NC(=O)[C@H](CCC(=O)O)NC(=O)[C@H](CC(C)C)NC(=O)[C@H](Cc2c[nH]cn2)NC(=O)[C@H]([C@@H](C)O)NC(=O)[C@H](CCC(N)=O)NC(=O)CNC(=O)[C@H]2CCCN2C(=O)[C@H](CCC(N)=O)NC(=O)[C@H]([C@@H](C)O)NC(=O)[C@H](C(C)C)NC(=O)[C@H](CCCNC(=N)N)NC1=O) [SEQ ID NO: 52],–,–,–,–,fold lowered (decreased) binding affinity of the cyclic peptide (PSD-95-PDZ2 [1]): 7 fold
Cyclo-(THLETT ? -Me-FTGDGTPKTIRVTQpG(Qα)) (THLETTXTGDGTPKTIRVTQPGQ; cyclic; N-methyl F111; D-proline; cyclized peptide; (7)..(7) X is N-Me-F; (21)..(21) is D-AA) [SEQ ID NO: 90],–,–,–,abolished the interaction,–
Cyclo-(THLETTFTGDGTPKSIRVTQpG(Qα)) (cyclo(THLETTFTGDGTPKSIRVTQ[dP]GQ); SMILES CC[C@H](C)[C@@H]1NC(=O)[C@H](CO)NC(=O)[C@H](CCCCN)NC(=O)[C@@H]2CCCN2C(=O)[C@H]([C@@H](C)O)NC(=O)CNC(=O)[C@H](CC(=O)O)NC(=O)CNC(=O)[C@H]([C@@H](C)O)NC(=O)[C@H](Cc2ccccc2)NC(=O)[C@H]([C@@H](C)O)NC(=O)[C@H]([C@@H](C)O)NC(=O)[C@H](CCC(=O)O)NC(=O)[C@H](CC(C)C)NC(=O)[C@H](Cc2c[nH]cn2)NC(=O)[C@H]([C@@H](C)O)NC(=O)[C@H](CCC(N)=O)NC(=O)CNC(=O)[C@H]2CCCN2C(=O)[C@H](CCC(N)=O)NC(=O)[C@H]([C@@H](C)O)NC(=O)[C@H](C(C)C)NC(=O)[C@H](CCCNC(=N)N)NC1=O) [SEQ ID NO: 50],–,–,–,–,fold lowered (decreased) binding affinity of the cyclic peptide (PSD-95-PDZ2 [1]): 25 fold

# The next lines start with results.
Ki (PSD-95-PDZ2 [1]) [µM],Relative Ki (Ki mut/Ki WT) (PSD-95-PDZ2 [1]),Normalized SPOT fluorescence (Mut/WT) (PSD-95-PDZ2 [2]),effect on interaction with PSD-95-PDZ2 (in words) (PSD-95-PDZ2 [1]),Compound,other results
0.19,–,–,–,CC[C@H](C)[C@@H]1NC(=O)[C@H]([C@@H](C)O)NC(=O)[C@H](CCCCN)NC(=O)[C@@H]2CCCN2C(=O)[C@H](CCC(=O)O)NC(=O)CNC(=O)[C@@H](CC(=O)O)NC(=O)CNC(=O)[C@H](Cc2c[nH]c3ccccc23)NC(=O)[C@H](Cc2ccccc2)NC(=O)[C@H]([C@@H](C)O)NC(=O)[C@H]([C@@H](C)O)NC(=O)[C@H](CCC(=O)O)NC(=O)[C@H](CC(C)C)NC(=O)[C@H](Cc2c[nH]cn2)NC(=O)[C@H]([C@@H](C)O)NC(=O)[C@H](CCC(N)=O)NC(=O)CNC(=O)[C@H]2CCCN2C(=O)[C@H](CCC(N)=O)NC(=O)[C@H]([C@@H](C)O)NC(=O)[C@H](C(C)C)NC(=O)[C@H](CCCNC(=N)N)NC1=O [compound 135] (cyclo(THLETTFWG[dD]GEPKTIRVTQ[dP]GQ)),–
–,–,–,abolishes binding,Cyclo-(THLEATFTGDGTPKTIRVTQpG(Qα)) (cyclo(THLEATFTGDGTPKTIRVTQ[dP]GQ); SMILES CC[C@H](C)[C@@H]1NC(=O)[C@H]([C@@H](C)O)NC(=O)[C@H](CCCCN)NC(=O)[C@@H]2CCCN2C(=O)[C@H]([C@@H](C)O)NC(=O)CNC(=O)[C@H](CC(=O)O)NC(=O)CNC(=O)[C@H]([C@@H](C)O)NC(=O)[C@H](Cc2ccccc2)NC(=O)[C@H]([C@@H](C)O)NC(=O)[C@H](C)NC(=O)[C@H](CCC(=O)O)NC(=O)[C@H](CC(C)C)NC(=O)[C@H](Cc2c[nH]cn2)NC(=O)[C@H]([C@@H](C)O)NC(=O)[C@H](CCC(N)=O)NC(=O)CNC(=O)[C@H]2CCCN2C(=O)[C@H](CCC(N)=O)NC(=O)[C@H]([C@@H](C)O)NC(=O)[C@H](C(C)C)NC(=O)[C@H](CCCNC(=N)N)NC1=O) [SEQ ID NO: 59],–
